Results published in patent publication US11903955B2, “Methods of treating heart failure with reduced ejection fraction” (ASTRAZENECA AB, priority 2019, dated 2024).
Like-named read-outs stand apart in the source and are kept apart here.

Assays:
[1] = test system: patients with chronic heart failure with reduced ejection fraction (LVEF ≤40%); details: for NT-proBNP, between-treatment difference: baseline to 8 months; for decrease in NT-proBNP: between baseline and 8 months
Procedure: Data from all randomly assigned patients were included in the analyses of the primary and secondary outcomes, according to the intention-to-treat principle. Baseline characteristics were summarized as means and standard deviations, medians and inter-quartile ranges, or percentages. Longitudinal measures, such as glycated hemoglobin level (HbA1c) and body weight, were analyzed using mixed model for repeated measurements, and the least-squares mean differences between treatment groups were estimated, together with 95% confidence intervals. Time-to-event data were evaluated with the use of Kaplan-Meier estimates and Cox proportional hazards models, stratified by diabetes status, with history of heart failure hospitalization and treatment as fixed-effect factors (for the renal endpoint, baseline eGFR was included instead of history of heart failure hospitalization); hazard ratios, 95% confidence intervals, and two-sided P values were calculated with the use of the Cox models.

patients with HFrEF = details: for Mild hyperkalemia (>5.5 mmol/L), HR (95% CI) / Moderate/Severe hyperkalemia (>6.0 mmol/L), HR (95% CI): dapagliflozin vs placebo; for Mild hyperkalemia (>5.5 mmol/L), No. events/patients: excluding baseline K+ > 5.5; for Moderate/Severe hyperkalemia (>6.0 mmol/L), No. events/patients: excluding baseline K+ > 6.0
Excerpt: Hyperkalemia often limits the use of mineralocorticoid receptor antagonists (MRAs) in patients with heart failure and reduced ejection fraction (HFrEF), denying these patients a life-saving therapy.

[2] = test system: patients with HFrEF without diabetes; details: individuals without diabetes at baseline
Excerpt: FIG. 17 describes incidence of new onset T2D (HbA1c ≥6.5%) measured at 2 consecutive study visits post-randomization or investigator-reported new T2D vs placebo patients with previously undiagnosed diabetes, i.e., HbA1c ≥6.5%
Patients also had measurement of a glycated hemoglobin (HbA1c) level in a central laboratory at visit 1 and again at visit 2 (the randomization visit), which occurred 14 (±7) days later. For this prespecified subgroup analysis, patients were categorized as having diabetes if there was a history of diabetes or the glycated hemoglobin was at least 6.5% (≥48 mmol/mol) at both visits 1 and 2. Patients with a glycated hemoglobin level <5.7% ([…]) at both visits 1 and 2 were considered to have a normal glycated hemoglobin. For the purposes of this study, patients with a glycated hemoglobin ≥5.7% and <6.5% were considered to have pre-diabetes. Id.

[3] = test system: patients with chronic heart failure with reduced ejection fraction (LVEF ≤40%); details: for Any serious adverse event (including death), % of patients / Any serious adverse event (including death), No. of patients: safety population
Excerpt: All the patients provided written informed consent and entered a 14-day enrollment period during which the trial inclusion and exclusion criteria were checked and baseline information gathered, including findings from clinical examination and laboratory measurements. […] Investigators used an interactive voice or web response system to obtain treatment assignment. Randomization was stratified based on a diagnosis of type 2 diabetes, defined as either an established diagnosis or a HbA1c level of 6.5% or greater (≥48 mmol/mol) confirmed in a central laboratory at screening. Patients were evaluated at 14 days and 60 days after randomization, with a focus on assessment of heart failure and volume status, adverse events, and checking renal function and potassium. Further study visits took place at 4 months and at 4-month intervals thereafter. The protocol required that study drug be permanently discontinued if pregnancy or diabetic ketoacidosis occurred.
KCCQ total symptom score was analyzed as a composite rank-based endpoint, incorporating patient vital status at 8 months along with change in score from baseline to 8 months in surviving patients, using the rank analysis of covariance method, with a corresponding win ratio used to estimate the magnitude of treatment effect.^17 The consistency of the treatment effect among 14 prespecified subgroups were assessed. The prespecified safety analyses included: serious adverse events; adverse events associated with discontinuation of study treatment; “adverse events of interest” i.e., volume depletion, renal events, major hypoglycemic events, bone fractures, diabetic ketoacidosis, amputations; Fournier's gangrene; and laboratory findings of note. […] Fisher's exact test was used to compare rates of adverse events. Analyses were performed using Stata, version 15 (College Station Tex., USA) and R version 3.5.1 (R Foundation for Statistical Computing, Vienna, Austria).

[4] = baseline to 8 month, dapagliflozin vs placebo

CCOc1ccc(Cc2cc([C@@H]3O[C@H](CO)[C@@H](O)[C@H](O)[C@H]3O)ccc2Cl)cc1 [Dapagliflozin, dapagliflozin]
Change in systolic BP ([1]; baseline to 8 month (Visit 6)): −1.92 ± 14.92 mmHg | Change in weight ([1]; baseline to 8 month (Visit 6)): -0.88 ± 3.86 kg | Change in HbA1c ([1]; baseline to 8 month (Visit 6), only patients with diabetes at baseline): −0.21 ± 1.14% | Systolic BP, between group difference (95% CI) [1, 4]: −1.41 (−2.31 to −0.52), p = 0.002 mmHg | Weight, between group difference (95% CI) [1, 4]: −0.98 (−1.22 to −0.74), p < 0.001 kg | HbA1c, between group difference (95% CI) ([1]; baseline to 8 month, dapagliflozin vs placebo, only patients with diabetes at baseline): −0.25 (−0.36 to −0.14), p < 0.001% | Change in potassium ([1]; in vivo): 0.07 ± 0.53 | Potassium, between group difference (95% CI) ([1]; in vivo): −0.02 (−0.05 to 0.01), p = 0.298 | NT-proBNP, between-treatment difference ([1]; participants with diabetes, dapagliflozin vs placebo): −333 (−562 to −104) pg/ml | decrease in NT-proBNP ([1]; participants with diabetes): 257 ± 2502 pg/mL | NT-proBNP, between-treatment difference ([1]; patients without diabetes, dapagliflozin vs placebo): −278 (−485 to −71) pg/ml | decrease in NT-proBNP ([1]; patients without diabetes): 144 ± 2286 pg/mL | Mild hyperkalemia (>5.5 mmol/L), rate per 100 py (patients with HFrEF; All patients): 8.1 per 100 py | Moderate/Severe hyperkalemia (>6.0 mmol/L), rate per 100 py (patients with HFrEF; All patients): 1.0 per 100 py | Mild hyperkalemia (>5.5 mmol/L), HR (95% CI) (patients with HFrEF; All patients): 0.93 (0.78-1.11) | Moderate/Severe hyperkalemia (>6.0 mmol/L), HR (95% CI) (patients with HFrEF; All patients): 0.64 (0.42-0.99) | Mild hyperkalemia (>5.5 mmol/L), No. events/patients (patients with HFrEF; All patients): 243/2292 | Moderate/Severe hyperkalemia (>6.0 mmol/L), No. events/patients (patients with HFrEF; All patients): 34/2358 | Mild hyperkalemia (>5.5 mmol/L), rate per 100 py (patients with HFrEF; MRA treated at baseline): 8.6 per 100 py | Moderate/Severe hyperkalemia (>6.0 mmol/L), rate per 100 py (patients with HFrEF; MRA treated at baseline): 0.9 per 100 py | Mild hyperkalemia (>5.5 mmol/L), HR (95% CI) (patients with HFrEF; MRA treated at baseline): 0.86 (0.70-1.05) | Moderate/Severe hyperkalemia (>6.0 mmol/L), HR (95% CI) (patients with HFrEF; MRA treated at baseline): 0.50 (0.29-0.85) | Moderate/Severe hyperkalemia (>6.0 mmol/L), HR (95% CI) (patients with HFrEF; MRA treated at baseline, listed as dapagliflozin): 0.50 (0.29, 0.85) | Mild hyperkalemia (>5.5 mmol/L), No. events/patients (patients with HFrEF; MRA treated at baseline): 180/1632 | Moderate/Severe hyperkalemia (>6.0 mmol/L), No. events/patients (patients with HFrEF; MRA treated at baseline): 21/1683 | Mild hyperkalemia (>5.5 mmol/L), rate per 100 py (patients with HFrEF; No MRA at baseline): 7.1 per 100 py | Moderate/Severe hyperkalemia (>6.0 mmol/L), rate per 100 py (patients with HFrEF; No MRA at baseline): 1.4 per 100 py | Mild hyperkalemia (>5.5 mmol/L), HR (95% CI) (patients with HFrEF; No MRA at baseline): 1.20 (0.84-1.72) | Moderate/Severe hyperkalemia (>6.0 mmol/L), HR (95% CI) (patients with HFrEF; No MRA at baseline): 1.17 (0.52-2.62) | Mild hyperkalemia (>5.5 mmol/L), No. events/patients (patients with HFrEF; No MRA at baseline): 63/660 | Moderate/Severe hyperkalemia (>6.0 mmol/L), No. events/patients (patients with HFrEF; No MRA at baseline): 13/675 | Mild hyperkalemia, patients (%) (patients with HFrEF; patients treated with an MRA): 180 (11%) patients (%) | moderate/severe hyperkalemia, patients (%) (patients with HFrEF; patients treated with an MRA): 21 (1.2%) patients (%) | new-onset diabetes, HR ([2]; dapagliflozin vs placebo (Cox)): 0.68 | reduction of new-onset diabetes ([2]; vs placebo): 32% | Any serious adverse event (including death), % of patients ([3]; No T2DM (N = 1295)): (34.6) % | Any serious adverse event (including death), No. of patients ([3]; No T2DM (N = 1295)): 448 patients | Any serious adverse event (including death), % of patients ([3]; T2DM (N = 1073)): (41.7) % | Any serious adverse event (including death), No. of patients ([3]; T2DM (N = 1073)): 447 patients | Adverse events of interest: Fournier gangrene, % of patients ([3]; human, in vivo): (0) % | Adverse events of interest: Fournier gangrene, No. of patients ([3]; human, in vivo): 0 patients | Adverse events of interest: Fracture, % of patients ([3]; human, in vivo): (2.1) % | Amputation, No. (%) ([3]; human, in vivo): 13 (0.5) No. (%) | Diabetic Ketoacidosis, No. (%) ([3]; human, in vivo): 3 (0.1) No. (%) | Discontinuation of study drug due to adverse event, No. (%) ([3]; human, in vivo): 111 (4.7) No. (%) | Fournier gangrene, No. (%) ([3]; human, in vivo): 0 (0) No. (%) | Fracture, No. (%) ([3]; human, in vivo): 49 (2.1) No. (%) | Major hypoglycemia, No. (%) ([3]; human, in vivo): 4 (0.2) No. (%) | Serious adverse events related to volume depletion, patients (%) ([3]; human, in vivo): 29 dapagliflozin treated patients (1.2%) patients (%) | Serious renal adverse events, patients (%) ([3]; human, in vivo): 38 dapagliflozin treated patients (1.6%) patients (%) | Fournier gangrene, No. (%) ([3]; in vivo): No case | amputation, cases ([3]; in vivo): twelve | amputation, patients ([3]; in vivo): one | Any serious adverse event (including death), No. (%) ([3]; safety population n = 2368): 895 (37.8) No. (%)
